Measured values as given in patent US20040209959A1, “Congeners of acetaminophen and related compounds as substrates for fatty acid conjugation and their use in treatment of pain, fever and inflammation” (priority 2001, published 2004).

Tests used:
[1] = target: T1, vanilloid receptors on vasodilator sensory nerves (Rattus norvegicus, UniProt O35433); experiment: Vasodilator effect in isolated rat mesenteric artery segments contracted with phenylephrine; settings: for activation of vanilloid receptors on perivascular sensory nerves: FIG. 7; for inhibition of the effect of capsaicin (antagonist action on vanilloid receptors): 1 mM acetaminophen or 100 μM p-aminophenol for 30 min; for vasorelaxation per se (agonist action on vanilloid receptors): p-aminophenol in the presence of ascorbic acid; for relaxation of arterial segments contracted with phenylephrine: FIG. 7c; for effect on the vasodilator action of AM404: capsazepine 3 μM, ruthenium red 1 μM
T1 construct: from tissue; host or cells: mesenteric arteries from female Wistar-Hannover rats
T1 sequence (O35433 whole entry): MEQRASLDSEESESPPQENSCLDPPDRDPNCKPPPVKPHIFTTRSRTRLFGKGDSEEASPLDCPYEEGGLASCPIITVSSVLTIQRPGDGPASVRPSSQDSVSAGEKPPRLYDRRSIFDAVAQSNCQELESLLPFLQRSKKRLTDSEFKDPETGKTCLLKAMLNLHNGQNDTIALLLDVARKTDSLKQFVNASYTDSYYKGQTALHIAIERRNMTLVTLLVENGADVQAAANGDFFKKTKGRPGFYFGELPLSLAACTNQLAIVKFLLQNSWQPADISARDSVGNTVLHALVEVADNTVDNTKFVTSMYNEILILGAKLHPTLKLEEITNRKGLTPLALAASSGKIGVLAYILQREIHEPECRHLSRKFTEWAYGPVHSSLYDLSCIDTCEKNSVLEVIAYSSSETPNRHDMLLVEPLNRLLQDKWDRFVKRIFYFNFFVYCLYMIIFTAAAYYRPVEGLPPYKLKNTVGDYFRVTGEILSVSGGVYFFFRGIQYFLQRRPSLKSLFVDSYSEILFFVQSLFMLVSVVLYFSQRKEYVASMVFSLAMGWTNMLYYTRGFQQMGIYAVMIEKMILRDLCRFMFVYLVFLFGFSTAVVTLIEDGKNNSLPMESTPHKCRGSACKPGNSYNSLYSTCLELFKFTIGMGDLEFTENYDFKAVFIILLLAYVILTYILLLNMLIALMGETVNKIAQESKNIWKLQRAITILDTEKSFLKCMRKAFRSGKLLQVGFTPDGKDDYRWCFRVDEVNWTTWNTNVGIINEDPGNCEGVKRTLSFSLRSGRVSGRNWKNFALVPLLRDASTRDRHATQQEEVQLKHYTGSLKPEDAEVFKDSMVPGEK
Method: Recording of tension. Experiments were performed on mesenteric arteries from female Wistar-Hannover rats (250 g) as described (48). Briefly, the arteries were cut into ring segments and mounted in tissue baths, containing aerated physiological salt solution (5% CO2 and 95% O2; 37° C.; pH 7.4). […] We studied relaxant responses in preparations contracted with phenylephrine. When stable contractions were obtained, substances were added cumulatively to determine concentration-response relationships.
Calculations and statistics. Data are presented as means ±S.E.M. (vertical lines in figures), and n indicates the number of animals unless otherwise stated. GraphPad Prism 3.0 software was used for curve fitting (non-linear regressions) and calculations of pEC50 values. Mann-Whitney U-test or Student's t-test on log transformed values was used for statistical analysis. Statistical significance was accepted when P<0.05.

COX-1 = target: T2, COX-1 (Ovis aries, UniProt P05979); settings: isolated enzyme preparation; 10 μM arachidonic acid
T2 sequence (P05979 25-600): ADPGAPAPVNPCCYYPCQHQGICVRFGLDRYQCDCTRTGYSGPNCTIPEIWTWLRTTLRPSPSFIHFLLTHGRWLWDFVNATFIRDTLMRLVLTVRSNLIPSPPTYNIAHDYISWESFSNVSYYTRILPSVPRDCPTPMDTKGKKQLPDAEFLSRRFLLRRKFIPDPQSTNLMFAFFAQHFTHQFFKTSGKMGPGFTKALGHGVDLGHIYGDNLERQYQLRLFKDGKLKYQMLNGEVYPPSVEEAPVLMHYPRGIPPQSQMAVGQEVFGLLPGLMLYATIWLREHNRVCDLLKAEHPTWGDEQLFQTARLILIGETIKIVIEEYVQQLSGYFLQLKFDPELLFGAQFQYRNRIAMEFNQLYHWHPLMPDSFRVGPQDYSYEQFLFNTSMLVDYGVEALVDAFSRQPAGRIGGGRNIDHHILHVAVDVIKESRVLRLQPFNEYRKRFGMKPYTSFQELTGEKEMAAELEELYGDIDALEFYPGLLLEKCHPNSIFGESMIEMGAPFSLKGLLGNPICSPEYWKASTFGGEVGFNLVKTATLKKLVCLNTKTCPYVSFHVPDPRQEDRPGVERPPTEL
Method: (§1) COX activity was measured as prostaglandin formation in the presence of 10 μM arachidonic acid.
(§2) COX-1 and COX-2 assays. COX-1 and COX-2 activity was determined in the presence of 10 μM arachidonic acid using a COX (ovine) inhibitor screening assay (Cayman). Drugs were incubated with the enzyme preparation 8 min before application of arachidonic acid. Prostaglandin formation was used as a measure of COX activity and quantified via enzyme immunoassay (EIA).

COX-2 = target: T3, COX-2 (Ovis aries, UniProt P79208); settings: isolated enzyme preparation; 10 μM arachidonic acid
T3 sequence (P79208 17-603): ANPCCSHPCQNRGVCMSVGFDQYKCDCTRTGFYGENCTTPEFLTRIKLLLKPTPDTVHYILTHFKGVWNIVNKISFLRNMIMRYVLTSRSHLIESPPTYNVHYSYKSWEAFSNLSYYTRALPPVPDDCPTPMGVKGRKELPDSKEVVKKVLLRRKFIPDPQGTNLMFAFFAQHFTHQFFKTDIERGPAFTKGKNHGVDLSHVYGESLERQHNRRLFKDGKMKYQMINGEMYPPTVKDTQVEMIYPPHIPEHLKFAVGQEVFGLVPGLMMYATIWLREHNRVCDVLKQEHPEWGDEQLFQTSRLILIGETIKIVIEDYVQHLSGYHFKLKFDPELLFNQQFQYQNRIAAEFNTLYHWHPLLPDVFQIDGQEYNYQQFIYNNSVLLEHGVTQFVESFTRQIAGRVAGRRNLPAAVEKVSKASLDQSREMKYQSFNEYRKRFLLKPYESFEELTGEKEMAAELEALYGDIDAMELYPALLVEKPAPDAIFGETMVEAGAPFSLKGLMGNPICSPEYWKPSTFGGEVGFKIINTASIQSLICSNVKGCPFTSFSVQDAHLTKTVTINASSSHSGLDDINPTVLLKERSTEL
Method: as §1, §2

anandamide hydrolysis = experiment: Inhibition of [2H8]-anandamide hydrolysis in rat brain homogenates; format: biochemical; settings: 1 hour pre-incubation, [2H8]-anandamide 10 μM
Method: (§3) Tissue homogenate experiments. The brain, liver, spinal cord and dorsal root ganglia from female Wistar-Hannover rats (250 g) were homogenised in a Tris buffer (10 mM, pH 7.6), containing EDTA (1 mM), to give 90-330 mg tissue ml^−1. We carried out experiments in aliquots of 200 μl homogenate at 37° C. as further explained in the text. The reactions were stopped by adding 1 ml ice-cold acetone containing 1 μM [^2H8]-anandamide. The samples were kept on ice until the acetone phase was evaporated in vacuo.
Sample aliquots of 5 μl were injected on a Genesis C18 column (50×2.1 mm; Jones). The HPLC was operated isocratically at 20% water and 80% methanol. The electrospray ion source was operating in the negative ion mode at 370° C., the ion spray voltage was −3000 volts and the declustering potential was −120 volts. M/z 310.8/267.0 with a collision energy of −22 volts was used for the quantitative determinations.

[2] = Method: In vivo experiments. Acetaminophen ([…]) or vehicle (saline) at a volume of 2-3 ml was given to female Wistar-Hannover rats (200-300 g) by an intraperitoneal injection. Some rats were pretreated with PMSF (10 mg kg^−1) or vehicle (saline:PEG 6000; 1:10 w/w) given subcutaneously (2-3 ml) 20 min before administration of acetaminophen. Approximately 20 min after injection of acetaminophen, the animals were killed to collect brain, liver, spinal cord and arterial blood. […] PMSF (0.1 mM) and ascorbic acid (0.3 mM) were also present in the Tris buffer and added to the blood samples to prevent degradation of fatty acid amides and p-aminophenol, respectively.
Quantitative analyses. The extraction residues were reconstituted in 100 μl methanol except for p-aminophenol, for which 100 μl 0.5% acetic acid was used. The quantitative analyses were performed using a Perkin Elmer 200 liquid chromatography system with autosampler (Applied Biosystems), coupled to an API 3000 tandem mass spectrometer (Applied Biosystems/MDS-SCIEX). All mobile phases were water-methanol gradients, containing 0.5% acetic acid, and the flow rate was 200 μl min^−1 except for arachidonic acid where it was 400 μl min^−1.
AM404, arachidonoyldopamine, arachidonoylserotonin and anandamide.
p-Aminophenol. Sample aliquots of 2 μl were injected on a Genesis phenyl column (150×2.1 mm; Jones). The mobile flow was initially 97% water for 2 min. […] The electrospray ion source was set at 450° C. and used in the positive ion mode. The ion spray voltage and declustering potential were set to 4500 volts and 55 volts, respectively. M/z 109.9/64.6 with a collision energy of 31 volts was used for the quantitative determinations.

Remark: listed apart in the source
[3] = test system: AM404 production in brain homogenates; experiment: Inhibition of AM404 formation in rat brain homogenates; format: biochemical; settings: 1 hour pre-incubation, p-aminophenol plus arachidonic acid each 100 μM
Method: as §3

[4] = female, Wistar-Hannover, rat, pH 7.6
Method: as §3
Sample aliquots of 5 μl were injected on a Genesis C8 column (20×2.1 mm; Jones). Initially, the mobile flow was 25% water for 5.5 min. […]
p-Aminophenol. […] M/z 109.9/64.6 with a collision energy of 31 volts was used for the quantitative determinations. […]

[5] = PMSF 10 mg kg^−1 s.c. 20 min before acetaminophen

CCCCC/C=C\C/C=C\C/C=C\C/C=C\CCCC(=O)OCC(O)CO (stereo not drawn) [1-arachidonoylglycerol]
activation of vanilloid receptors on perivascular sensory nerves [1]: activators

CCCCC/C=C\C/C=C\C/C=C\C/C=C\CCCC(=O)OC(CO)CO [2-arachidonoylglycerol]
activation of vanilloid receptors on perivascular sensory nerves [1]: activators

CCCCCC=CCC=CCC=CCC=CCCCC(=O)Nc1ccc(O)cc1 [AM404, N-(4-hydroxyphenyl)-5,8,11,14-eicosatetraenamide]
effect on COX-1 activity (COX-1): concentration-dependently inhibited | effect on COX-2 activity (COX-2): concentration-dependently inhibited | EC50 [1]: 15.8 nM | relaxation of arteries pre-treated with capsaicin ([1]; capsaicin 1 μM for 30 min): unable to relax

O=S(=O)(F)Cc1ccccc1 [PMSF, phenyl-methyl-sulphonylfluoride]
pEC50 for inhibition of the hydrolysis of anandamide (anandamide hydrolysis): 5.28±0.07 | effect on formation of AM404 in brain after acetaminophen [2, 5]: abolished | reduction of p-aminophenol content in brain after acetaminophen [2, 5]: 48% | effect on formation of arachidonoyldopamine and arachidonoylserotonin (PMSF 100 μM added 1 hour before): almost abolished | pEC50 for inhibition of the formation of AM404 [3]: 5.41±0.03

CC(=O)Nc1ccc(O)cc1 [acetaminophen]
AM404 formation in brain homogenates ([4]; 100 μM): did not result in any detectable levels of AM404 | AM404 in brain homogenates ([4]; 1 mM): 14 ± 2.6 pmol/g | AM404 in brain, representative chromatogram of one animal ([2]; female, Wistar-Hannover, rat, in vivo, 20 min): 23.4 pmol/g | effect on COX-1 activity (COX-1): No effect | effect on COX-2 activity (COX-2): No effect | inhibition of the effect of capsaicin (antagonist action on vanilloid receptors) [1]: nor inhibited the effect of capsaicin | vasorelaxation per se (agonist action on vanilloid receptors) [1]: neither induced vasorelaxation per se

CCCCC/C=C\C/C=C\C/C=C\C/C=C\CCCC(=O)NCCc1ccc(O)c(OC)c1 [arachidonoyl-3-methoxytyramine]
activation of vanilloid receptors on perivascular sensory nerves [1]: activators | relaxation of arterial segments contracted with phenylephrine [1]: concentration-dependent relaxation

CCCCC/C=C\C/C=C\C/C=C\C/C=C\CCCC(=O)NCCc1ccc(O)cc1 [arachidonoyltyramine]
activation of vanilloid receptors on perivascular sensory nerves [1]: activators | relaxation of arterial segments contracted with phenylephrine [1]: concentration-dependent relaxation

Oc1cc2c(cc1O)CN(C(=S)NCCc1ccc(Cl)cc1)CCC2 [capsazepine]
effect on the vasodilator action of AM404 [1]: inhibited

NCCc1ccc(O)c(O)c1 [dopamine]
production of arachidonoyldopamine (brain homogenates, dopamine 100 μM plus arachidonic acid 100 μM, 1 hour): substantial amounts

Nc1ccc(O)cc1 [p-aminophenol]
effect on COX-1 activity (COX-1): No effect | effect on COX-2 activity (COX-2): No effect | inhibition of the effect of capsaicin (antagonist action on vanilloid receptors) [1]: nor inhibited the effect of capsaicin | vasorelaxation per se (agonist action on vanilloid receptors) [1]: neither induced vasorelaxation per se

N.N.N.N.N.N.N.N.N.N.N.N.N.N.[Cl-].[Cl-].[Cl-].[Cl-].[Cl-].[Cl-].[O-2].[O-2].[Ru+3].[Ru+3].[Ru+4] [ruthenium red]
effect on the vasodilator action of AM404 [1]: inhibited

NCCc1c[nH]c2ccc(O)cc12 [serotonin]
production of arachidonoylserotonin (brain homogenates, serotonin 100 μM plus arachidonic acid 100 μM, 1 hour): substantial amounts
